Source: US20210278408A1, “METHODS OF TREATMENT OF CANCER WITH SUBSTITUTED PYRROLE AND PYRAZOLE COMPOUNDS AND DIAGNOSIS OF CANCERS SUSCEPTIBLE TO TREATMENT WITH SUBSTITUTED PYRROLE AND PYRAZOLE COMPOUNDS” (Bantam Pharmaceutical, LLC, priority 2018, published 2021)

Tested on: 406 cancer cell lines, 73 blood tumor cell lines and 333 solid tumor cell lines
Assay: OmniScreen drug efficacy on cancer cell lines, fitted area under curve (AUC) of dose-response
Format: cell-based
Design: AUCs: unit not given beside the values
Method: Predictive biomarkers for genes indicating responsiveness to a therapeutic compound can be determined using a cell-based screening technique, such as that offered under the name OmniScreen™ (Crown Biosciences).
In one experimental study, predictive biomarkers were determined for Compound A197 efficacy on 406 cancer cell lines, 73 blood tumor cell lines and 333 solid tumor cell lines. Genomic data for the cell lines was downloaded from the Cancer Cell Line Encyclopedia Project (CCLE) website. Driver mutations were predicted on the Cancer Genome Interpreter Database; only driver mutations were used in the mutation related analysis.
Dose-response curves were fitted by the 4-parameter model:
in which top and bottom are the two asymptotes of the sigmoidal curve, EC50 is the relative IC50, and concentration x is in log−10 scale. To accommodate experimental errors, Bottom was allowed to go down to −20%, and Top was allowed to go up to 120%. The fitting error of a model is measured by
σECS0 is the standard error of EC50. In general, such fitting error should be less than 40% for a model to be considered acceptable. The fitted area under curve (AUC) is calculated by
where a=log(3, 10) and b=log(30000,10).

With `Cc1nn(-c2nc(-c3ccc(C(F)(F)F)cc3)c(SC(C)C)s2)c(C(=O)O)c1-c1cccc(F)c1` [Compound A197, 4-(3-fluorophenyl)-1-(5-(isopropylthio)-4-(4-(trifluoromethyl)phenyl)thiazol-2-yl)-3-methyl-1H-pyrazole-5-carboxylic acid] the AUCs (KHOS/NP, Bone) was 3.37, the AUCs (KP4, Pancreas) was 2.84 and the IC50 (KP4, Pancreas) was 0.52 µM. It also gave an AUCs (KU812, Blood) of 3.91, an AUCs (KYSE-410, Esophagus) of 3.51 and an AUCs (L-82, Blood) of 2.94. The AUCs (LN-229, Brain&Nerves) was 3.59, the AUCs (LNCaP clone FGC, Prostate) was 2.48 and the AUCs (LS123, Colorectum) was 4. For the same compound, the AUCs (LS1034, Colorectum) was 3.29, the AUCs (MCF7, Breast) was 3.76 and the AUCs (MDA-MB-415, Breast) was 3.49. For the same compound, the AUCs (MDA-MB-436, Breast) was 3.33, the AUCs (MDA-MB-453, Breast) was 3.26 and the AUCs (ME-180, Uterus) was 2.65. The AUCs (MES-SA, Uterus) was 2.67, the AUCs (MES-SA/DX5, Uterus) was 2.17 and the AUCs (MFE-296, Uterus) was 3.24. For the same compound, the AUCs (MIA PaCa-2, Pancreas) was 3.15, the AUCs (MKN1, Stomach/Gastric) was 3.21 and the AUCs (MKN45, Stomach/Gastric) was 3.54. For the same compound, the AUCs (MKN74, Stomach/Gastric) was 2.89, the AUCs (MM.1S, Blood) was 3.46 and the AUCs (MS751, Uterus/Cervix) was 3.52. For the same compound, the AUCs (NCI-H69, Lung) was 3.75, the AUCs (NCI-H146, Lung) was 3.86 and the AUCs (NCI-H187, Lung) was 2.89. For the same compound, the AUCs (NCI-H209, Lung) was 3.47, the AUCs (NCI-H226, Lung) was 2.98 and the AUCs (NCI-H292, Lung) was 3.17. For the same compound, the AUCs (NCI-H441, Lung) was 3.85, the AUCs (NCI-H446, Lung) was 3.83 and the AUCs (NCI-H460, Lung) was 3.13. It also gave an AUCs (NCI-H522, Lung) of 3.12, an AUCs (NCI-H526, Lung) of 3.6 and an AUCs (NCI-H596, Lung) of 3.81. For the same compound, the AUCs (NCI-H661, Lung) was 3.43, the AUCs (NCI-H727, Lung) was 3.53 and the AUCs (NCI-H747, Large intestine/Colorectum) was 3.19. The AUCs (NCI-H929, Blood) was 3.32, the AUCs (NCI-H1048, Lung) was 3.35 and the AUCs (NCI-H1563, Lung) was 3.71. The AUCs (NCI-H1581, Lung) was 3.1, the AUCs (NCI-H1648, Lung) was 3.56 and the AUCs (NCI-H1650, Lung) was 4.13. For the same compound, the AUCs (NCI-H1666, Lung) was 3.51, the AUCs (NCI-H1688, Lung) was 3.57 and the AUCs (NCI-H1781, Lung) was 3.34. The AUCs (NCI-H1838, Lung) was 3.62, the AUCs (NCI-H1915, Lung) was 3.33 and the AUCs (NCI-H1975, Lung) was 3.6. The AUCs (NCI-H2009, Lung) was 3.22, the AUCs (NCI-H2052, Lung) was 3.92 and the AUCs (NCI-H2087, Lung) was 3.19. For the same compound, the AUCs (NCI-H2452, Lung) was 3.72, the AUCs (NCI-N87, Stomach/Gastric) was 3.09 and the AUCs (NUGC-3, Stomach/Gastric) was 3.64. It also gave an AUCs (NUGC-4, Stomach/Gastric) of 3.11, an AUCs (OCI-AML3, Blood/Leukemia) of 3.62 and an IC50 (OCUM1, OCUM-1, Stomach/Gastric) of 68.3 µM. For the same compound, the AUCs (OCUM-1, Stomach/Gastric) was 3.57, the AUCs (OCUM-2D, Stomach/Gastric) was 3.12 and the IC50 (OCUM-2D, Stomach/Gastric) was 1.14 µM. For the same compound, the AUCs (OCUM-2M, Stomach/Gastric) was 2.88, the IC50 (OCUM-2M, Stomach/Gastric) was 0.848 µM and the AUCs (OE19, Esophagus/gastric cardia) was 3.44. For the same compound, the IC50 (OSC19, OSC-19, Tongue) was 34.5 µM, the AUCs (OSC-19, Tongue) was 3.85 and the AUCs (OVCAR-3, Ovary) was 3.29. It also gave an AUCs (OVCAR-8, Ovary) of 3.05, an AUCs (PANC-1, Pancreas) of 3.13 and an AUCs (PC-3, Prostate) of 3.82. For the same compound, the IC50 (PL45, PL45, Pancreas) was 0.993 µM, the AUCs (PL45, Pancreas) was 3.37 and the AUCs (RL95-2, Uterus) was 2.63. For the same compound, the AUCs (RPMI-2650, Nose) was 3.04, the AUCs (SCC-4, Tongue) was 3.69 and the AUCs (SCC-9, Tongue) was 3.31. It also gave an AUCs (SCC-15, Tongue) of 3.56, an AUCs (SCC-25, Tongue) of 3.29 and an AUCs (SCH, Stomach/Gastric) of 3.48. For the same compound, the AUCs (SF268, Brain&Nerves) was 3.24, the AUCs (SF-126, Brain&Nerves) was 3.39 and the AUCs (SK-HEP-1, Liver) was 3.05. The AUCs (SK-MEL-5, Skin) was 4.12, the AUCs (SK-MEL-28, Skin) was 4.18 and the AUCs (SK-OV-3, Ovary) was 3.53. For the same compound, the AUCs (SK-UT-1, Uterus) was 3.67, the AUCs (SNU-1, Stomach/Gastric) was 3.25 and the AUCs (SNU-5, Stomach/Gastric) was 3.11. It also gave an AUCs (SNU-81, Colorectum) of 3.54, an IC50 (SNU-216, SNU-216, Stomach/Gastric) of 124 µM and an AUCs (SNU-216, Stomach/Gastric) of 3.7. For the same compound, the AUCs (SNU-354, Liver) was 3.39, the AUCs (SNU-423, Liver) was 3.2 and the IC50 (SNU-484, SNU-484, Stomach/Gastric) was 74.8 µM. The AUCs (SNU-484, Stomach/Gastric) was 3.64, the IC50 (SNU-601, SNU-601, Stomach/Gastric) was 0.331 µM and the AUCs (SNU-601, Stomach/Gastric) was 2.89. It also gave an AUCs (SNU-620, Stomach/Gastric) of 3.75, an AUCs (SNU-638, Stomach/Gastric) of 3.32 and an AUCs (SNU-668, Stomach/Gastric) of 3.48. It also gave an AUCs (SNU-719, Stomach/Gastric) of 3.58, an IC50 (SNU-719, Stomach/Gastric) of 1320 µM and an AUCs (SNU-C5, Large intestine/Colorectum) of 3.5. For the same compound, the AUCs (SW48, Colorectum) was 3.74, the AUCs (SW480, Colorectum) was 3.62 and the IC50 (SW579, SW579, Thyroid) was 50.5 µM. For the same compound, the AUCs (SW579, Thyroid) was 3.73, the AUCs (SW626, Ovary) was 3.89 and the AUCs (SW684, Soft tissue) was 3.77. The AUCs (SW756, Ovary) was 3.75, the AUCs (SW948, Colorectum) was 3.37 and the AUCs (SW982, Soft tissue) was 3.99. For the same compound, the AUCs (SW1116, Colorectum) was 3.82, the AUCs (SW1271, Lung) was 3.9 and the IC50 (SW1271, SW1271, Lung) was 498 µM. The AUCs (SW1990, Pancreas) was 3.12, the AUCs (T47D, Breast) was 3.33 and the AUCs (T84, Colorectum) was 3.57. It also gave an AUCs (TE-1, Esophagus) of 3.23, an AUCs (TF-1, Blood) of 3.24 and an AUCs (TJ905, Brain&Nerves) of 3.68. It also gave an AUCs (TT, Thyroid) of 3.19, an IC50 (TT, Thyroid) of 2.17 µM and an AUCs (U266B1, Blood) of 3.41. It also gave an AUCs (U-2 OS, Bone) of 3.44, an AUCs (UACC-812, Breast) of 3.52 and an AUCs (UO.31, Kidney) of 3.58. The AUCs (WM-266-4, Skin) was 3.87, the AUCs (Y-79, Eye) was 3.72 and the AUCs (YCC-1, Stomach/Gastric) was 3.54. For the same compound, the AUCs (YCC-2, Stomach/Gastric) was 3.66, the AUCs (YCC-6, Stomach/Gastric) was 2.95 and the IC50 (YCC-6, Stomach/Gastric) was 6.32 µM. For the same compound, the AUCs (YCC-10, Stomach/Gastric) was 3.64, the IC50 (YCC-10, Stomach/Gastric) was 412 µM and the AUCs (YCC-11, Stomach/Gastric) was 3.34. The AUCs (ZR-75-30, Breast) was 3.44.
